Series [1] deals with mouse neural stem cells (mNSC). Briefly: MTT assay, viability of mouse neural stem cells. Type of series: cell-based. The conditions noted are these: 10 μM BRQ, 3 days. As for the experimental part:
(§1) One thousand cells were seeded into each well of a 96-well plate and cultured for 3 days in medium (200 μL/well) supplemented with only DMSO at a final concentration of 0.1% or in medium (200 μL/well) supplemented with each dihydroorotate dehydrogenase (DHODH) inhibitor. The medium used was the appropriate culture solution for each cell as described above.
(§2) The concentration of each DHODH inhibitor added to the medium was a 2-fold dilution series starting from 200 μM.
(§3) As a background, a well containing medium only was prepared, and as a control, a well was also prepared in which medium containing Triton X-100 (final concentration 0.2%) was added to the cells.
(§4) Then, 5 μL of MTT (5 mg/ml, manufactured by Wako) was added to each well, and the cells were incubated at 37° C. for 2 to 3 hours. Then, the medium was replaced with 100 μL of DMSO to lyse the cells, and the absorbance of these cell lysates at a wavelength of 570 nm was measured with a microplate reader (manufactured by Bio-Rad, Benchmark model). In addition, based on the obtained absorbance, the cell viability was calculated by the following formula.
Cell viability (%)=(absorbance in wells with DHODH inhibitor-absorbance in background)/(absorbance in control-absorbance in background)×100.

The subject of series [2] is PA6: mouse bone marrow-derived stromal cells. Briefly: MTT assay, viability of PA6 cells. Type of series: cell-based. The conditions noted are these: 10 μM BRQ, 3 days. As for the experimental part:
as §1, §2, §3, §4
Cell viability (%)=(absorbance in wells with DHODH inhibitor-absorbance in background)/(absorbance in control-absorbance in background)×100. […]
For orientation: Tetrazolium dyes change colour on reduction, which living cells bring about.

Series [3] concerns mouse neural stem cells and mouse ES cells. Briefly: Mixed culture of neural stem cells and ES cells, Nestin/Nanog immunostaining. The conditions noted are these: 10 μM BRQ, 3 days. Type of series: cell-based. As for the experimental part:
The cells were fixed and immunostained as described in Kondo et al., Genes Dev. 2004, Vol. 18, Issue 23, pp. 2963-72. […] For the culture of mNSCs, PDL+fibronectin-coated ones were used (see Johe KK et al., Genes Dev. 1996, Vol. 10, Issue 24, pp. 3129 to 3140). For the culture of ES cells and iPS cells, gelatin-coated ones were used.
For immunostaining, the cells were first washed once with PBS, then fixed by adding 4% paraformaldehyde and incubating for 10 minutes at room temperature. The cells were replaced with PBS containing 0.3% Triton X100 and incubated for 5 minutes at room temperature, then replaced with PBS containing 0.3% Triton X100 and 10% FCS (blocking solution) and incubated for 30 minutes at room temperature. The solution was replaced with primary antibody solution diluted in blocking solution and incubated for 2 hours at room temperature. After washing three times with PBS, secondary antibody and DAPI solution diluted with blocking solution were added and incubated at room temperature for 2 hours. After washing three times with PBS, the cells were sealed with anti-fading agent (manufactured by DAKO, code number: 53023) and observed under a microscope. […] In addition, fluorescence images were acquired with an Axiolmager M1 microscope (manufactured by Carl Zeiss).
The cells were then analyzed by immunostaining as described above.

The test system of series [4] is teratomas formed from mouse iPS cells. Briefly: Anti-teratoma activity in NOD/SCID mice, iPS cell-derived tumors. Type of series: in vivo. As for the experimental part:
For tumors, 10-μm-thick sections were prepared and immunostained using the methods described by Kondo T. and Raff M., EMBO J. 2000; 19(9): 1998-2007, and Takanaga H, et al., Stem Cells. 2009; 27(1): 165-174. The following antibodies were used for this immunostaining.
TOCRIS) PBS solution was administered daily intraperitoneally to mice bearing subcutaneous tumors. Five days after intraperitoneal administration, the mice were sacrificed to death, and the tumors were removed and photographed for pathological analysis according to the method described in Tsukamoto Y, et al., Stem Cells. 2016; 34(8): 2016-2025.
Next, sections of these tumors were prepared, immunolabeled for the proliferation marker Ki67, pluripotent stem cell markers (Oct4 and Nanog), and differentiation markers (ATF, βIII tubulin, and SMA), and observed.

“Also recorded” adds a separate entry of the source.

Regarding `Cc1c(-c2ccc(-c3ccccc3F)cc2)nc2ccc(F)cc2c1C(=O)O` [BRQ, 6-fluoro-2-(2′-fluoro-1,1′-biphenyl-4-yl)-3-methyl-4-quinoline-sodium carboxylate], the “cytotoxic activity / sensitivity (viability, MTT assay)” value in series [1] is recorded as “hyposensitive; also recorded: no significant cytotoxic activity”. In addition, in series [2], the “cytotoxic activity (viability, MTT assay)” value was “no significant cytotoxic activity”. In series [3] (ES cell medium), the “ES cells (Nanog) in mixed culture” value is reported as “lost”. Further, in series [3] (mixed with ES cells), the “cytotoxicity to neural stem cells (Nestin) in mixed culture” value is on record as “no obvious cytotoxicity”. For the same molecule, in series [4] (iPS cell-derived tumors), the “number of Oct4-positive cells and Nanog-positive cells in tumors” value is given as “significantly decreased”. Besides, the tumor proliferation entry in series [4] (iPS cell-derived tumors, BRQ intraperitoneally) is given as “suppressed”. In series [4] (iPS cell-derived tumors, BRQ- vs DMSO-treated), the “cells expressing differentiation markers (ATF, βIII tubulin, SMA) in tumors” value was “similarly contained in both tumors”. Also, in series [4] (iPS cell-derived tumors, compared to DMSO-treated tumors), the “Ki67-positive proliferating cells in tumors” value is recorded as “significantly reduced”. The sizes of teratomas in series [4] (iPS cell-derived, BRQ intraperitoneally (DMSO control 1.37 cm^3)) amounted to 0.32 cm^3.

Values taken from patent US20220364065A1, “COMPOSITION FOR REMOVING PLURIPOTENT STEM CELLS AND METHOD OF REMOVING PLURIPOTENT STEM CELLS” (NATIONAL UNIVERSITY CORPORATION HOKKAIDO UNIVERSITY, priority 2018, published 2022).
